Measurements: patent publication US6677309B1, “Anti-cancer drug aldehyde conjugate drugs with enhanced cytotoxicity compounds, compositions and methods” (University Technology Corporation, priority 1997, dated 2004)

Columns and labels:
[1] = amorphous material
[2] = Hydrolysis in fetal bovine serum, HPLC; type: in vitro ADME; conditions: pH 8.1, in serum at 37° C., read-out: half-life of the equilibrium mixture with intermediate B with respect to formation of intermediates C and D

With COc1cccc2c1C(=O)c1c(O)c3c(c(O)c1C2=O)C[C@@](O)(C(C)=O)C[C@@H]3O[C@H]1C[C@H]2[C@H](OCN2CN2CO[C@@H]3[C@H](C)O[C@@H](O[C@H]4C[C@](O)(C(C)=O)Cc5c(O)c6c(c(O)c54)C(=O)c4c(OC)cccc4C6=O)C[C@@H]32)[C@H](C)O1 [DAUNF, bis(3′-N-(3′-N,4′-O-methylenedaunorubicinyl))methane] as the molecule, how does the “concentration to which the material dissolved instantly in dimethylsulfoxide” value [1] read?
The value was ≥ 20000 µg/mL.

With COc1cccc2c1C(=O)c1c(O)c3c(c(O)c1C2=O)CC(O)(C(=O)CO)CC3OC1CC2C(OCN3CN2COC2C(C)OC(OC4C[C@](O)(C(=O)CO)Cc5c(O)c6c(c(O)c54)C(=O)c4c(OC)cccc4C6=O)CC23)C(C)O1 (some centres unmarked) [EPIF] as the molecule, how does the half-life at 25 µM [2] read?
The half-life at 25 µM was ≥ 2 h.
